From ChEMBL document CHEMBL3865792, “Antioxidant and antitumor activity of trolox, trolox succinate, and α-tocopheryl succinate conjugates with nitroxides” (Eur J Med Chem, 2016)

System: not listed separately
Test: Ratio of IC50 for human HEPG2 cells to concentration causing antioxidant activity in Salmonella typhimurium TA102 harboring […] mutant
Type: functional
Conditions: not given

Structure (SMILES)	Ratio
Cc1c(C)c2c(c(C)c1OC(=O)CCC(=O)NCC1CC(C)(C)N([O])C1(C)C)CCC(C)(C(=O)NCC1CC(C)(C)N([O])C1(C)C)O2 (stereo unspecified)	100 - 1000

System: not listed separately
Test: Ratio of IC50 for human RPMI8226 cells to concentration causing antioxidant activity in Salmonella typhimurium TA102 harboring […] mutant
Type: functional, RPMI-8226
Conditions: not given

Structure (SMILES)	Ratio
Cc1c(C)c2c(c(C)c1OC(=O)CCC(=O)NCC1CC(C)(C)N([O])C1(C)C)CCC(C)(C(=O)NCC1CC(C)(C)N([O])C1(C)C)O2 (stereo unspecified)	100 - 1000

System: not listed separately
Test: Cytotoxicity against human CEM13 cells assessed as reduction in cell viability after 72 hrs by MTT assay
Type: functional, cell-based
Conditions: CEM13, 72 h

Structure (SMILES)	IC50
Cc1c(C)c2c(c(C)c1OC(=O)CCC(=O)NCC1CC(C)(C)N([O])C1(C)C)CCC(C)(C(=O)NCC1CC(C)(C)N([O])C1(C)C)O2 (stereo unspecified)	107 µM

System: not listed separately
Test: Ratio of IC50 for human U937 cells to concentration causing antioxidant activity in Salmonella typhimurium TA102 harboring […] mutant
Type: functional, U-937
Conditions: not given

Structure (SMILES)	Ratio
Cc1c(C)c2c(c(C)c1OC(=O)CCC(=O)NCC1CC(C)(C)N([O])C1(C)C)CCC(C)(C(=O)NCC1CC(C)(C)N([O])C1(C)C)O2 (stereo unspecified)	100 - 1000

System: not listed separately
Test: Cytotoxicity against human MCF7 cells assessed as reduction in cell viability after 72 hrs by MTT assay
Type: functional, cell-based
Conditions: MCF7, 72 h

Structure (SMILES)	IC50
Cc1c(C)c2c(c(C)c1OC(=O)CCC(=O)NCC1CC(C)(C)N([O])C1(C)C)CCC(C)(C(=O)NCC1CC(C)(C)N([O])C1(C)C)O2 (stereo unspecified)	> 300 µM

System: not listed separately
Test: Cytotoxicity against human MCF7 cells assessed as reduction in cell viability at 300 uM after 72 hrs by MTT assay
Type: functional
Conditions: MCF7, 72 h

Structure (SMILES)	inhibition at 300 µM
Cc1c(C)c2c(c(C)c1OC(=O)CCC(=O)NCC1CC(C)(C)N([O])C1(C)C)CCC(C)(C(=O)NCC1CC(C)(C)N([O])C1(C)C)O2 (stereo unspecified)	32%

System: Salmonella enterica subsp. enterica serovar Typhimurium
Test: Antioxidant activity in Salmonella typhimurium TA102 harboring […] mutant assessed as inhibition of t-BuO2H-dependant mutant formation at 3 uM preincubated with compound followed by t-BuO2H addition after 48 hrs by Ames test
Type: functional
Conditions: not given

Structure (SMILES)	inhibition
Cc1c(C)c2c(c(C)c1OC(=O)CCC(=O)NCC1CC(C)(C)N([O])C1(C)C)CCC(C)(C(=O)NCC1CC(C)(C)N([O])C1(C)C)O2 (stereo unspecified)	23%

System: not listed separately
Test: Cytotoxicity against hamster AG17-1 cells assessed as reduction in cell viability after 72 hrs by MTT assay
Type: toxicity, cell-based, Cricetulus griseus
Conditions: Chinese hamster

Structure (SMILES)	IC50 at 72 h
Cc1c(C)c2c(c(C)c1OC(=O)CCC(=O)NCC1CC(C)(C)N([O])C1(C)C)CCC(C)(C(=O)NCC1CC(C)(C)N([O])C1(C)C)O2 (stereo unspecified)	50 µM

System: not listed separately
Test: Ratio of IC50 for human MCF7 cells to concentration causing antioxidant activity in Salmonella typhimurium TA102 harboring […] mutant
Type: functional
Conditions: not given

Structure (SMILES)	Ratio
Cc1c(C)c2c(c(C)c1OC(=O)CCC(=O)NCC1CC(C)(C)N([O])C1(C)C)CCC(C)(C(=O)NCC1CC(C)(C)N([O])C1(C)C)O2 (stereo unspecified)	100 - 1000

System: not listed separately
Test: Cytotoxicity against mouse LMTK cells assessed as reduction in cell viability after 72 hrs by MTT assay
Type: toxicity
Conditions: not given

Structure (SMILES)	IC50 at 72 h
Cc1c(C)c2c(c(C)c1OC(=O)CCC(=O)NCC1CC(C)(C)N([O])C1(C)C)CCC(C)(C(=O)NCC1CC(C)(C)N([O])C1(C)C)O2 (stereo unspecified)	> 300 µM

System: Salmonella enterica subsp. enterica serovar Typhimurium
Test: Antioxidant activity in Salmonella typhimurium TA102 harboring […] mutant assessed as inhibition of t-BuO2H-dependant mutant formation at 30 uM preincubated with compound followed by t-BuO2H addition after 48 hrs by Ames test
Type: functional
Conditions: not given

Structure (SMILES)	inhibition
Cc1c(C)c2c(c(C)c1OC(=O)CCC(=O)NCC1CC(C)(C)N([O])C1(C)C)CCC(C)(C(=O)NCC1CC(C)(C)N([O])C1(C)C)O2 (stereo unspecified)	20%

System: Salmonella typhimurium
Test: Genotoxicity in Salmonella typhimurium TA102 harboring […] mutant assessed as frequency of reversion from histidine auxotrophy to prototrophy at 30 mM after 48 hrs by Ames test (reference value: 209 +/- 10 No _unit)
Type: toxicity, organism-based
Conditions: salmonella enterica subsp. enterica serovar typhimurium, 30000 µM

Structure (SMILES)	Activity
Cc1c(C)c2c(c(C)c1OC(=O)CCC(=O)NCC1CC(C)(C)N([O])C1(C)C)CCC(C)(C(=O)NCC1CC(C)(C)N([O])C1(C)C)O2 (stereo unspecified)	209

System: not listed separately
Test: Ratio of IC50 for human MT4 cells to concentration causing antioxidant activity in Salmonella typhimurium TA102 harboring […] mutant
Type: functional
Conditions: not given

Structure (SMILES)	Ratio
Cc1c(C)c2c(c(C)c1OC(=O)CCC(=O)NCC1CC(C)(C)N([O])C1(C)C)CCC(C)(C(=O)NCC1CC(C)(C)N([O])C1(C)C)O2 (stereo unspecified)	100 - 1000

System: not listed separately
Test: Genotoxicity in Escherichia coli PQ37 expressing lacZ gene assessed as ratio of inducible beta-galactosidase activity to alkaline phosphatase activity at 30 mM after 2 hrs by SOS-chromotest relative to control
Type: toxicity
Conditions: Escherichia coli PQ37 cells expressing lacZ gene, read-out: FC

Structure (SMILES)	fold induction at 2 h, 30000 µM
Cc1c(C)c2c(c(C)c1OC(=O)CCC(=O)NCC1CC(C)(C)N([O])C1(C)C)CCC(C)(C(=O)NCC1CC(C)(C)N([O])C1(C)C)O2 (stereo unspecified)	1.2

System: not listed separately
Test: Cytotoxicity against human HepG2 cells assessed as reduction in cell viability after 72 hrs by MTT assay
Type: functional, cell-based
Conditions: HepG2, 72 h

Structure (SMILES)	IC50
Cc1c(C)c2c(c(C)c1OC(=O)CCC(=O)NCC1CC(C)(C)N([O])C1(C)C)CCC(C)(C(=O)NCC1CC(C)(C)N([O])C1(C)C)O2 (stereo unspecified)	176 µM

System: not listed separately
Test: Cytotoxicity against human RPMI8226 cells assessed as reduction in cell viability after 72 hrs by MTT assay
Type: functional, cell-based
Conditions: RPMI-8226, 72 h

Structure (SMILES)	IC50
Cc1c(C)c2c(c(C)c1OC(=O)CCC(=O)NCC1CC(C)(C)N([O])C1(C)C)CCC(C)(C(=O)NCC1CC(C)(C)N([O])C1(C)C)O2 (stereo unspecified)	70 µM

System: not listed separately
Test: Ratio of IC50 for human CEM13 cells to concentration causing antioxidant activity in Salmonella typhimurium TA102 harboring […] mutant
Type: functional
Conditions: not given

Structure (SMILES)	Ratio
Cc1c(C)c2c(c(C)c1OC(=O)CCC(=O)NCC1CC(C)(C)N([O])C1(C)C)CCC(C)(C(=O)NCC1CC(C)(C)N([O])C1(C)C)O2 (stereo unspecified)	100 - 1000

System: not listed separately
Test: Cytotoxicity against human MT4 cells assessed as reduction in cell viability after 72 hrs by MTT assay
Type: functional, cell-based
Conditions: MT4, 72 h

Structure (SMILES)	IC50
Cc1c(C)c2c(c(C)c1OC(=O)CCC(=O)NCC1CC(C)(C)N([O])C1(C)C)CCC(C)(C(=O)NCC1CC(C)(C)N([O])C1(C)C)O2 (stereo unspecified)	114 µM

System: not listed separately
Test: Cytotoxicity against human U937 cells assessed as reduction in cell viability after 72 hrs by MTT assay
Type: functional, cell-based
Conditions: U-937, 72 h

Structure (SMILES)	IC50
Cc1c(C)c2c(c(C)c1OC(=O)CCC(=O)NCC1CC(C)(C)N([O])C1(C)C)CCC(C)(C(=O)NCC1CC(C)(C)N([O])C1(C)C)O2 (stereo unspecified)	61 µM

System: not listed separately
Test: Cytotoxicity against mouse LMTK cells assessed as reduction in cell viability at 300 uM after 72 hrs by MTT assay
Type: toxicity
Conditions: read-out: INH

Structure (SMILES)	cytotoxicity at 72 h, 300 µM
Cc1c(C)c2c(c(C)c1OC(=O)CCC(=O)NCC1CC(C)(C)N([O])C1(C)C)CCC(C)(C(=O)NCC1CC(C)(C)N([O])C1(C)C)O2 (stereo unspecified)	10%

System: Salmonella enterica subsp. enterica serovar Typhimurium
Test: Antioxidant activity in Salmonella typhimurium TA102 harboring […] mutant assessed as inhibition of t-BuO2H-dependant mutant formation at 0.3 uM preincubated with compound followed by t-BuO2H addition after 48 hrs by Ames test
Type: functional
Conditions: not given

Structure (SMILES)	inhibition
Cc1c(C)c2c(c(C)c1OC(=O)CCC(=O)NCC1CC(C)(C)N([O])C1(C)C)CCC(C)(C(=O)NCC1CC(C)(C)N([O])C1(C)C)O2 (stereo unspecified)	13%
